{"source": "patent US20140356343A1", "about": "“COMPOSITION FOR TREATING PARKINSON'S DISEASE” (priority 2011, published 2014)", "test_system": "unilateral 6-hydroxydopamine (6-OHDA) lesioned rat", "assay_type": "in vivo, Male Sprague-Dawley rats", "details": "for effect on onset of rotational action of apamin: given with apamin", "excerpt": "The potential antiparkinsonian activity of apitoxin (bee venom; Alyostal®), and certain of its constituents such as apamin, melittin, hyaluronidase, and others were investigated in the standard, unilateral 6-hydroxydopamine (6-OHDA) lesioned rat model, in animals responding to an apomorphine challenge, according to the method previously described with minor modifications (Oh J D, Chartisathian K, Ahmed S M, and Chase T N. (2003) J of Neurosci. Res. 72, 768-780, Oh J D, Chartisathian K, Chase T N and Butcher L L, (2000) Brain Res. 853, 174-185, Oh J D and Chase T N. (2002) Amino Acids 23, 133-139, Oh J D, Del Dotto P, Chase T N. (1997) Neurosci Lett. 228, 5-8, Oh J D, Geller A I, Zhang G, Chase T N. (2003) Br. Res. 971, 18-30, Oh J D, Russell D, Vaughan C L and Chase T N. (1998) Br. Res. 813, 150-159.). Conventional anti-parkinsonian dopamine (DA) agonists, apomorphine, amphetamine, and L-dopa were used as comparator drugs. Control animals received vehicle, phosphate buffered saline (PBS). Rotation (turning) behavior in response to drug challenge was used as a predictor of anti-parkinson activity. All compounds or vehicle were administered either subcutaneously (s.c.) or intraperitonealy (i.p.).\nThe anti-parkinson activity of various test substances was studied as previously described 1-6. Male Sprague-Dawley rats weighing approximately 300 g were housed with free access to food and water. Under […] (50 mg/kg, i.p.), the nigrostriatal pathway was unilaterally lesioned by administering 6-OHDA HCl (8 μg in 4 μL of saline with 0.02% ascorbate) into the left medial forebrain bundle (AP −5.0, L 1.3, V 8.0 from the dura mater). Following surgery, rats were challenged with apomorphine (0.1 mg/kg, s.c.), to confirm the lesion of nigro-striatal pathway. Rats that responded to apomorphine were kept for further testing.\nRats received test drugs, comparator drugs, or vehicle on post-surgical Week 3 following 6-OHDA lesioning and subsequently for additional […] (Week 4-10 post-surgery).\nRotation behavior was measured by placing rats in a rotometer and measuring turning behavior over 5-minute periods (5-min bins). To measure rotation behavior, each animal was placed at least 10 minutes prior to the drug or vehicle administration into a rotometer and turning was measured. Animals then received test drugs, and turning behavior was measured as described above for 4 to 12 hours post-drug administration.", "key": {"[1]": {"details": "Melittin 0.5 to 3 mg/kg with apamin 0.5 to 1.0 mg/kg"}, "[2]": {"details": "Melittin alone, dose range 1-3 mg/kg"}, "[3]": {"details": "Hyaluronidase alone, dose range 10 to 30 mg/kg"}, "[4]": {"details": "PL-A2 alone, approximately 2 and 3 mg/kg i.p."}, "[5]": {"details": "Phospholipase A2 alone, dose range 2 to 3 mg/kg"}}, "note": "Read-outs that look alike come from different tables or passages of the source. No end group written: not given here.", "data": [{"compound": "CC(C)C[C@@H]1NC(=O)[C@H](C)NC(=O)[C@H]([C@@H](C)O)NC(=O)[C@H](CCC(=O)O)NC(=O)[C@@H]2CCCN2C(=O)[C@H](C)NC(=O)[C@H](CCCCN)NC(=O)[C@@H]2CSSC[C@@H](C(=O)N[C@@H](CCC(N)=O)C(=O)N[C@@H](CCC(N)=O)C(=O)N[C@@H](Cc3cnc[nH]3)C(N)=O)NC(=O)[C@H](CCCNC(=N)N)NC(=O)[C@H](CCCNC(=N)N)NC(=O)[C@H](C)NC(=O)[C@H](CSSC[C@H](N)C(=O)N[C@@H](CC(N)=O)C(=O)N2)NC1=O", "note": "[Apamin, apamin]", "values": [{"measurement": "Atypical Motor Behaviors", "setting": "Apamin 0.5 mg/kg alone", "result": "None"}, {"measurement": "Atypical Motor Behaviors", "setting": "Apamin 1 mg/kg alone", "result": "Mild"}, {"measurement": "Atypical Motor Behaviors (dose at which seen)", "setting": "apamin alone", "result": "≧1.5 mg/kg"}, {"measurement": "doses at which abnormal motor behaviors increasingly interfered with normal and rotatory motor behaviors", "setting": "apamin alone", "result": "1.5 to 3.0", "unit": "mg/kg"}, {"measurement": "doses at which abnormal motor behaviors were clinically insignificant", "setting": "apamin alone", "result": "0.75 to 1.50", "unit": "mg/kg"}, {"measurement": "dose at which atypical motor behavior began to appear", "setting": "apamin alone, tremors, dystonic postures, alterations in muscular tone, locomotor incoordination", "result": "about 1.5 mg/kg"}, {"measurement": "therapeutic index compared with apitoxin", "setting": "motoric response, apamin alone", "result": "lower therapeutic index"}]}, {"compound": "CN1CCc2cccc3c2[C@H]1Cc1ccc(O)c(O)c1-3", "note": "[Apomorphine, apomorphine, reference compound]", "values": [{"measurement": "effect on apamin-induced contralateral rotations", "setting": "apomorphine co-administration at less than standard dose, 0.005 mg/kg s.c.", "result": "mildly potentiate"}]}, {"compound": "CC[C@H](C)[C@H](NC(=O)CN)C(=O)NCC(=O)N[C@@H](C)C(=O)N[C@H](C(=O)N[C@@H](CC(C)C)C(=O)N[C@@H](CCCCN)C(=O)N[C@H](C(=O)N[C@@H](CC(C)C)C(=O)N[C@H](C(=O)N[C@H](C(=O)NCC(=O)N[C@@H](CC(C)C)C(=O)N1CCC[C@H]1C(=O)N[C@@H](C)C(=O)N[C@@H](CC(C)C)C(=O)N[C@H](C(=O)N[C@@H](CO)C(=O)N[C@@H](Cc1c[nH]c2ccccc12)C(=O)N[C@H](C(=O)N[C@@H](CCCCN)C(=O)N[C@@H](CCCNC(=N)N)C(=O)N[C@@H](CCCCN)C(=O)N[C@@H](CCCNC(=N)N)C(=O)N[C@@H](CCC(N)=O)C(=O)N[C@@H](CCC(N)=O)C(N)=O)[C@@H](C)CC)[C@@H](C)CC)[C@@H](C)O)[C@@H](C)O)C(C)C)C(C)C", "note": "[Melittin]", "values": [{"measurement": "effect on rotatory response to apamin", "setting": "0.25 mg/kg apamin and 0.75 mg/kg melittin", "result": "potentiated"}, {"measurement": "atypical motor behaviors that apamin usually induces", "setting": "[1]", "result": "mild to absence"}, {"measurement": "onset of contralateral rotations", "setting": "[1]", "result": "faster onset"}, {"measurement": "Atypical Motor Behaviors", "setting": "[2]", "result": "None"}, {"measurement": "Rotational Response Contralateral", "setting": "[2]", "result": "10 number of turns in 12 hours"}, {"measurement": "Rotational Response Ipsilateral", "setting": "[2]", "result": "45 to 50 number of turns in 12 hours"}, {"measurement": "ability similar to apamin to induce a conspicuous turning response", "setting": "apitoxin component given alone", "result": "none"}, {"measurement": "effect on onset of rotational action of apamin", "result": "significantly hasten"}, {"measurement": "rotational response", "setting": "melittin alone 0.5 to 10 mg/kg i.p., contralateral more frequent than ipsilateral", "result": "modest, intermittent rotational response"}]}, {"compound": "CC(N)Cc1ccccc1", "note": "(centres unmarked) [amphetamine, reference compound]", "values": [{"measurement": "effect on apamin-induced ipsilateral rotation", "setting": "amphetamine co-administration at less than the standard dose of 0.05 mg/kg i.p.", "result": "mildly potentiate"}]}, {"compound": "NCCc1c[nH]cn1", "note": "[histamine, Histamine, reference compound]", "values": [{"measurement": "ability similar to apamin to induce a conspicuous turning response", "setting": "rat, in vivo", "result": "none"}]}, {"compound": "N[C@@H](Cc1ccc(O)c(O)c1)C(=O)O", "note": "[levodopa, reference compound]", "values": [{"measurement": "effect on apamin-induced contralateral rotations", "setting": "levodopa co-administration at less than standard dose, 5 mg/kg i.p.", "result": "mildly potentiate"}]}, {"compound": "HTGAVLAGV [HTGAVLAGV, reference compound]", "values": [{"measurement": "Atypical Motor Behaviors", "setting": "HTGAVLAGV alone, 1-10 mg/kg", "result": "None"}]}, {"compound": "Hyaluronidase", "values": [{"measurement": "effect on atypical motor behaviors induced by apamin", "setting": "1.0 mg/kg apamin and 20 mg/kg hyaluronidase", "result": "reduced"}, {"measurement": "Atypical Motor Behaviors", "setting": "[3]", "result": "None"}, {"measurement": "Rotational Response Contralateral", "setting": "[3]", "result": "5 number of turns in 12 hours"}, {"measurement": "Rotational Response Ipsilateral", "setting": "[3]", "result": "40 number of turns in 12 hours"}, {"measurement": "ability similar to apamin to induce a conspicuous turning response", "setting": "apitoxin component given alone", "result": "none"}, {"measurement": "effect on ipsilateral turning behavior induced by apamin", "setting": "hyaluronidase 5 to 20 mg/kg i.p. with apamin 0.1 to 1.0 mg/kg", "result": "mildly potentiated"}, {"measurement": "turning", "setting": "hyaluronidase given alone, 0.5 to 30 mg/kg i.p.", "result": "did not induce turning"}, {"measurement": "effect on atypical motor behaviors observed with higher doses of apamin", "setting": "hyaluronidase with apamin, vs apamin given alone", "result": "decreased"}]}, {"compound": "Mast Cell Degranulating Peptide (IKCNCKRHVIKPHICRKICGKN; ends and bridges not checked; cysteine pairing not given here; UniProt P01499 28-49, looked up) [apitoxin component, GenScript #RP10663, reference compound]", "values": [{"measurement": "ability similar to apamin to induce a conspicuous turning response", "setting": "apitoxin component given alone", "result": "none"}]}, {"compound": "Phospholipase A-2 [Phospholipase A2]", "values": [{"measurement": "effect on rotatory response to apamin", "setting": "0.5 mg/kg apamin and 5 mg/kg PLA-2", "result": "potentiated"}, {"measurement": "duration of ipsilateral rotations", "setting": "[4]", "result": "about 4 hours"}, {"measurement": "rotational response", "setting": "[4]", "result": "induced ipsilateral rotations"}, {"measurement": "start of ipsilateral rotations after administration", "setting": "[4]", "result": "1 to 4", "unit": "h"}, {"measurement": "Atypical Motor Behaviors", "setting": "PL-A2 given alone", "result": "No atypical motor behaviors were observed"}, {"measurement": "motor response", "setting": "PL-A2 given alone, 1 mg/kg i.p.", "result": "minimal squirming response"}, {"measurement": "effect on onset of turning behavior", "setting": "PLA-2 given with apamine", "result": "accelerated"}, {"measurement": "effect on turning behavior", "setting": "PLA-2 given with apamine", "result": "moderately potentiated"}, {"measurement": "Atypical Motor Behaviors", "setting": "[5]", "result": "None"}, {"measurement": "Rotational Response Contralateral", "setting": "[5]", "result": "10 number of turns in 12 hours"}, {"measurement": "Rotational Response Ipsilateral", "setting": "[5]", "result": "50 to 60 number of turns in 12 hours"}, {"measurement": "ability similar to apamin to induce a conspicuous turning response", "setting": "apitoxin component given alone", "result": "none"}, {"measurement": "effect on onset of rotational action of apamin", "result": "significantly hasten"}]}, {"compound": "Secapin [reference compound]", "values": [{"measurement": "Atypical Motor Behaviors", "setting": "Secapin alone, 1-20 mg/kg", "result": "None"}, {"measurement": "Rotational Response Contralateral", "setting": "Secapin alone, 1-20 mg/kg", "result": "5 number of turns in 12 hours"}, {"measurement": "Rotational Response Ipsilateral", "setting": "Secapin alone, 1-20 mg/kg", "result": "40 number of turns in 12 hours"}, {"measurement": "rotational behavior above baseline (spontaneous rotation)", "setting": "Secapin at 1 to 20 mg/kg", "result": "little or no rotational behavior"}, {"measurement": "ability similar to apamin to induce a conspicuous turning response", "setting": "apitoxin component given alone", "result": "none"}]}, {"compound": "Tertiapin (ALCNCNRIIIPHMCWKKCGKK; UniProt P56587 1-21, looked up) [apitoxin component, Sigma-Aldrich #T8316, reference compound]", "values": [{"measurement": "Atypical Motor Behaviors", "setting": "Tertiapin alone, 1 and 3 mg/kg", "result": "None"}, {"measurement": "Rotational Response Contralateral", "setting": "Tertiapin alone, 1 and 3 mg/kg", "result": "5 number of turns in 12 hours"}, {"measurement": "Rotational Response Ipsilateral", "setting": "Tertiapin alone, 1 and 3 mg/kg", "result": "40 number of turns in 12 hours"}, {"measurement": "rotational behavior above baseline (spontaneous rotation)", "setting": "Tertiapin at 1 and 3 mg/kg", "result": "little or no rotational behavior"}, {"measurement": "ability similar to apamin to induce a conspicuous turning response", "setting": "apitoxin component given alone", "result": "none"}]}]}
